For one experiment, the target named is T1, L858R/T790M/C797S EGFR (Homo sapiens, UniProt P00533, C797S/L858R/T790M).
T1 construct: expressed in transfected cells; host or cells: H1975 clone #25 (lentiviral over-expression, endogenous EGFR knocked out by sgRNA)
Nature of the experiment: EGFR degradation HTRF assay in H1975-clone #25 (LTC) cells. Conditions: 16h treatment; for DC50: H1975 # 25-LTC (L858R/T790M/C797S), HTRF; for Dmax: NCI-H1975, H1975 # 25-LTC (L858R/T790M/C797S), maximum percentage of degradation. Format: cell-based. The gist of the method:
(§1)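 Each homozygous H1975 clone was dosed for 16 h at 37 °C with an 8-dose, 5-fold series (top 10 uM, 0.2% DMSO). An HTRF antibody pair then measured EGFR in lysates, and a sigmoidal fit of percent inhibition gave DC50.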
(Time-resolved FRET reads energy transfer from a long-lived donor to a nearby acceptor.)

A further experiment concerns Del19/T790M/C797S EGFR. Nature of the experiment: EGFR degradation HTRF assay in H1975-clone #28 (DTC) cells. Conditions: H1975 # 28 DTC (Del19/T790M/C797S), 16h treatment; for DC50: HTRF; for Dmax (%): maximum percentage of degradation. Format: cell-based. Put shortly:
as §1

The DC50 is the midpoint of the concentration-degradation curve. A low value points to degradation at low concentration. Usually Dmax stands for the greatest extent of degradation seen. A high value points to deep degradation.

T1 sequence (P00533 25-1210 T790M/C797S/L858R): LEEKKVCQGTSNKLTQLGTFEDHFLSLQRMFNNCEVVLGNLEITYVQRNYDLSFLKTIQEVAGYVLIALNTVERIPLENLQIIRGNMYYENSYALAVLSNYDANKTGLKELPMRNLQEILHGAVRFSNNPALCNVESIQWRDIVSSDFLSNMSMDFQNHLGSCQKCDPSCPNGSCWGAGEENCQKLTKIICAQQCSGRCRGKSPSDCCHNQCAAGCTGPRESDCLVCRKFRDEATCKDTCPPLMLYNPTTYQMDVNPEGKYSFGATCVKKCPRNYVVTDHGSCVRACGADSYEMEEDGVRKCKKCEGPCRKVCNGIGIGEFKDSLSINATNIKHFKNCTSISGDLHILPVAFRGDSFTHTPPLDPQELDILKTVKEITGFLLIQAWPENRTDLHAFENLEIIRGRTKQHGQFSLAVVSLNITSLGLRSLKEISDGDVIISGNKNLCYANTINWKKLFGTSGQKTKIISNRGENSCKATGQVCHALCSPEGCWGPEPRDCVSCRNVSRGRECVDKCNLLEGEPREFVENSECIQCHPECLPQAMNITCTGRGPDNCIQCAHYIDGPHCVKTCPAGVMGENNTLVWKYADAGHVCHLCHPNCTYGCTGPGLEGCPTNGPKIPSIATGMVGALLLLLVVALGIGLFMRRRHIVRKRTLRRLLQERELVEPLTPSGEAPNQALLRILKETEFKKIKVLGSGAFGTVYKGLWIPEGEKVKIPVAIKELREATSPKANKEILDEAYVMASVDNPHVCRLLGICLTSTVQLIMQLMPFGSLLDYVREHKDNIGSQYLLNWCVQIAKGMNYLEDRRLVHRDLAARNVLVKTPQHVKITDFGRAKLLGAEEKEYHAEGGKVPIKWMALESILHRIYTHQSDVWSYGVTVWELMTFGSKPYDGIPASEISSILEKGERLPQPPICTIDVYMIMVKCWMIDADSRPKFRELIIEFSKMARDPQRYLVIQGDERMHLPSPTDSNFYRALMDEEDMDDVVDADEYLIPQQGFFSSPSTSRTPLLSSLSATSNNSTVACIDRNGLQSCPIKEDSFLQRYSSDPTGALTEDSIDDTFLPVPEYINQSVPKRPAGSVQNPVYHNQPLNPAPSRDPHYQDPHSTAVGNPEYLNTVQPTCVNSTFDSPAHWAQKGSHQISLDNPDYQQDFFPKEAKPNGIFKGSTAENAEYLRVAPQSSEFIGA

On L858R/T790M/C797S EGFR, `Cc1cc2cc(n1)-c1cnn(C)c1OCCC[C@@H](C)CN1/C(=N/C2=O)Nc2ccc(CN3CCC(N4CCN(C5CN(c6cc(F)c([C@H]7CCC(=O)NC7=O)c(F)c6)C5)CC4)CC3)cc21` [Example 18, (R)-3-(2,6-difluoro-4-(3-(4-(1-(((R,E)-1^1,2^6,7-trimethyl-3-oxo-5^2,5^3-dihydro-1^1H,5^1H-11-oxa-4-aza-5(2,1)-benzo[d]imidazola-2(2,4)-pyridina-1(4,5)-pyrazolacycloundecaphane-5^6-yl)methyl)piperidin-4-yl)piperazin-1-yl)azetidin-1-yl)phenyl)piperidine-2,6-dione] showed a DC50 of 4.4 nM and a Dmax of 87.4%. In addition, in the experiment with Del19/T790M/C797S EGFR, the DC50 is 2.1 nM and the “Dmax (%)” value is on record as 75.8%.
Consider `Cc1cc2cc(n1)-c1cnn(C)c1OCCC[C@@H](C)CN1/C(=N/C2=O)Nc2ccc(C(=O)N3CCC(NCCc4cc(F)c([C@H]5CCC(=O)NC5=O)c(F)c4)CC3)cc21` [Example 300, (R)-3-(2,6-difluoro-4-(2-((1-((R,E)-1^1,2^6,7-trimethyl-3-oxo-5^2,5′-dihydro-1^1H,5^1H-11-oxa-4-aza-5(2,1)-benzo[d]imidazola-2(2,4)-pyridina-1(4,5)-pyrazolacycloundecaphane-5^6-carbonyl)piperidin-4-yl)amino)ethyl)phenyl)piperidine-2,6-dione], for which, on L858R/T790M/C797S EGFR, half-maximal degradation (DC50) was put at 0.653 nM and the Dmax stood at 88.2%. In the experiment with Del19/T790M/C797S EGFR, the 50% degradation concentration (DC50) turned out to be 1.48 nM and the “Dmax (%)” value is 73.74%.
On the same counts, the results for `Cc1cc2cc(n1)-c1cnn(C)c1OCCC[C@@H](C)CN1/C(=N/C2=O)Nc2ccc(N3CCN([C@H]4C[C@@H](Nc5cc(F)c([C@H]6CCC(=O)NC6=O)c(F)c5)C4)CC3)cc21` [Example 445, (R)-3-(2,6-difluoro-4-(((1 S,3S)-3-(4-((R,E)-1^1,2^6,7-trimethyl-3-oxo-5^2,5^3-dihydro-1^1H,5^1H-11-oxa-4-aza-5(2,1)-benzo[d]imidazola-2(2,4)-pyridina-1(4,5)-pyrazolacycloundecaphane-5^6-yl)piperazin-1-yl)cyclobutyl)amino)phenyl)piperidine-2,6-dione] are 0.559 nM, 84.5%, 2.14 nM and 74.88%.
Take `CO[C@@H]1CN(CCc2cc(F)c([C@H]3CCC(=O)NC3=O)c(F)c2)CC[C@@H]1N(C)C(=O)c1ccc2c(c1)N1C[C@H](C)CCCOc3c(cnn3C)-c3cc(cc(C)n3)C(=O)/N=C/1N2` [Example 252, (R,E)-N—((3R,4S)-1-(4-((R)-2,6-dioxopiperidin-3-yl)-3,5-difluorophenethyl)-3-methoxypiperidin-4-yl)-N,1^1,2^6,7-tetramethyl-3-oxo-5^2,5^3-dihydro-1^1H,5^1H-11-oxa-4-aza-5(2,1)-benzo[d]imidazola-2(2,4) -pyridina-1(4,5)-pyrazolacycloundecaphane-5^4-carboxamide]: at L858R/T790M/C797S EGFR, half-maximal degradation (DC50) was put at 0.584 nM and the Dmax stood at 92.4%. In the experiment on Del19/T790M/C797S EGFR, the DC50 came out at 0.606 nM and the “Dmax (%)” value is on record as 77.32%.
The matching figures for `Cc1cc2cc(n1)-c1cnn(C)c1OCCC[C@@H](C)CN1/C(=N/C2=O)Nc2ccc(C(=O)N(C)[C@H]3CCN(CCc4cc(F)c([C@H]5CCC(=O)NC5=O)c(F)c4)[C@@H](C)C3)cc21` [Example 267, (R,E)-N—((2S,4S)-1-(4-((R)-2,6-dioxopiperidin-3-yl)-3,5-difluorophenethyl)-2-methylpiperidin-4-yl)-N,1^1,2^6,7-tetramethyl-3-oxo-5^2,5^3-dihydro-1^1H,5^1H-11-oxa-4-aza-5(2,1)-benzo[d]imidazola-2(2,4)-pyridina-1(4,5)-pyrazolacycloundecaphane-5^6-carboxamide]: 0.602 nM, 91.7%, 0.624 nM and 76.64%.
The matching figures for `Cc1cc2cc(n1)-c1cnn(C)c1OCCC[C@@H](C)CN1/C(=N/C2=O)Nc2ccc(C(=O)N3CC[C@H](N(C)CCc4cc(F)c([C@H]5CCC(=O)NC5=O)c(F)c4)C3)cc21` [Example 297, (R)-3-(2,6-difluoro-4-(2-(methyl((S)-1-((R,E)-1^1,2^6,7-trimethyl-3-oxo-5^2,5^3-dihydro-1^1H,5^1H-11-oxa-4-aza-5(2,1)-benzo[d]imidazola-2(2,4)-pyridina-1(4,5)-pyrazolacycloundecaphane-5^6-carbonyl)pyrrolidin-3-yl)amino)ethyl)phenyl)piperidine-2,6-dione]: 0.432 nM, 91.7%, 0.292 nM and 79.64%.
As to `Cc1cc2cc(n1)-c1cnn(C)c1OCCC[C@@H](C)CN1/C(=N/C2=O)Nc2ccc(N3CCN(C4CCN(c5cc(F)c([C@H]6CCC(=O)NC6=O)c(F)c5)CC4)[C@H](CO)C3)cc21` [Example 447, (R)-3-(2,6-difluoro-4-(4-((S)-2-(hydroxymethyl)-4-((R,E)-1^1,2^6,7-trimethyl-3-oxo-5^2,5^3-dihydro-1^1H,5^1H-11-oxa-4-aza-5(2,1)-benzo[d]imidazola-2(2,4)-pyridina-1(4,5)-pyrazolacycloundecaphane-5^6-yl)piperazin-1-yl)piperidin-1-yl)phenyl)piperidine-2,6-dione], at L858R/T790M/C797S EGFR, the 50% degradation concentration (DC50) amounted to 0.652 nM and the Dmax was 84.2%. For the same compound, in the experiment on Del19/T790M/C797S EGFR, half-maximal degradation (DC50) was put at 0.645 nM and the “Dmax (%)” value was 76.31%.
On L858R/T790M/C797S EGFR, `Cc1cc2cc(n1)-c1cnn(C)c1OCCC[C@@H](C)CN1/C(=N/C2=O)Nc2ccc(NC3CN(C4CCN(c5cc(F)c([C@H]6CCC(=O)NC6=O)c(F)c5)CC4)C3)cc21` [Example 459, (R)-3-(2,6-difluoro-4-(4-(3-(((R,E)-1^1,2^6,7-trimethyl-3-oxo-5^2,5^3-dihydro-1^1H,5^1H-11-oxa-4-aza-5(2,1)-benzo[d]imidazola-2(2,4)-pyridina-1(4,5)-pyrazolacycloundecaphane-5^6-yl)amino)azetidin-1-yl)piperidin-1-yl)phenyl)piperidine-2,6-dione] yielded a 50% degradation concentration (DC50) of 0.431 nM and a maximal degradation (Dmax) of 84.1%. Further, in the experiment with Del19/T790M/C797S EGFR, the DC50 is 0.624 nM and the “Dmax (%)” value amounted to 73.95%.
On the same counts, the results for `Cc1cc2cc(n1)-c1cnn(C)c1OCCCCCN1/C(=N/C2=O)Nc2ccc(C(=O)N(C)C3CCN(CCc4cc(F)c([C@H]5CCC(=O)NC5=O)c(F)c4)CC3)cc21` [Example 238, (R,E)-N-(1-(4-(2,6-dioxopiperidin-3-yl)-3,5-difluorophenethyl)piperidin-4-yl)-N,1^1,2^6-trimethyl-3-oxo-5^2,5^3-dihydro-1^1H,5^1H-11-oxa-4-aza-5(2,1)-benzo[d]imidazola-2(2,4)-pyridina-1(4,5)-pyrazolacycloundecaphane-5^6-carboxamide] are 0.602 nM, 93.2%, 0.565 nM and 83.62%.
On the same counts, the results for `Cc1cc2cc(n1)-c1cnn(C)c1OCCC[C@@H](C)CN1/C(=N/C2=O)Nc2ccc(N3CCN([C@H]4C[C@H](Nc5cc(F)c([C@H]6CCC(=O)NC6=O)c(F)c5)C4)CC3)cc21` (single isomer, unassigned) [Example 444] are 2.1 nM, 89%, 1.3 nM and 82.11%.
On the same counts, the results for `Cc1cc2cc(n1)-c1cnn(C)c1OCCC[C@@H](C)CN1/C(=N/C2=O)Nc2ccc(N3CCN(C4CCN(c5cc(F)c([C@H]6CCC(=O)NC6=O)c(F)c5)CC4)CC34CC4)cc21` [Example 418, (R)-3-(2,6-difluoro-4-(4-(4-((R,E)-1^1,2^6,7-trimethyl-3-oxo-5^2,5^3-dihydro-1^1H,5^1H-11-oxa-4-aza-5(2,1)-benzo[d]imidazola-2(2,4)-pyridina-1(4,5)-pyrazolacycloundecaphane-5^6-yl)-4,7-diazaspiro[2.5]octan-7-yl)piperidin-1-yl)phenyl)piperidine-2,6-dione] are 0.517 nM, 60.7%, 3.2 nM and 91.56%.
At L858R/T790M/C797S EGFR, `Cc1cc2cc(n1)-c1c(C(F)F)nn(C)c1OCCC[C@@H](C)CN1/C(=N/C2=O)Nc2ccc(CN3CCN(C(=O)C4CN(c5cc(F)c([C@H]6CCC(=O)NC6=O)c(F)c5)C4)CC3)cc21` [Example 64, (R)-3-(4-(3-(4-(((R,E)-13-(difluoromethyl)-1^1,2^6,7-trimethyl-3-oxo-5^2,5^3-dihydro-1^1H,5^1H-11-oxa-4-aza-5(2,1)-benzo[d]imidazola-2(2,4)-pyridina-1(4,5)-pyrazolacycloundecaphane-5^6-yl)methyl)piperazine-1-carbonyl)azetidin-1-yl)-2,6-difluorophenyl)piperidine-2,6-dione] gave a DC50 of 3.13 nM and a maximal degradation (Dmax) of 76.8%. Besides, in the experiment on Del19/T790M/C797S EGFR, the 50% degradation concentration (DC50) was found to be 1.51 nM and the “Dmax (%)” value worked out at 80.65%.
On the same counts, the results for `Cc1cc2cc(n1)-c1cnn(C)c1OCCC[C@@H](C)CN1/C(=N/C2=O)Nc2ccc(C(=O)N(C)C3CN(C4CCN(c5cc(F)c([C@H]6CCC(=O)NC6=O)c(F)c5)CC4)C3)cc21` [Example 309, (R,E)-N-(1-(1-(4-((R)-2,6-dioxopiperidin-3-yl)-3,5-difluorophenyl)piperidin-4-yl)azetidin-3-yl)-N,1′,2^6,7-tetramethyl-3-oxo-5^2,5^3-dihydro-1^1H,5^1H-11-oxa-4-aza-5(2,1)-benzo[d]imidazola-2(2,4)-pyridina-1(4,5)-pyrazolacycloundecaphane-5^6-carboxamide] are 0.459 nM, 83%, 0.684 nM and 65.2%.

For the origin of these results see patent US20240342292A1, “Compounds for the Degradation of EGFR Kinase” (BeiGene Switzerland GmbH, priority 2021, published 2024).
